Data reported in US20040166058A1, “Ethylenedicysteine (EC)-drug conjugates, compositions and methods for tissue specific disease imaging” (Board of Regents, The University of Texas System, priority 2002, published 2004).

Tests used:
[1] = test system: human lung cancer cells (A549 tumor cell line); assay: Biodistribution in lung tumor-bearing nude mice; assay type: in vivo, athymic nude mice; conditions: for Biodistribution Blood / Biodistribution Brain / Biodistribution Heart / Biodistribution Intestine / Biodistribution Kidney / Biodistribution Liver / Biodistribution Lung / Biodistribution Muscle / Biodistribution Spleen / Biodistribution Stomach / Biodistribution Thyroid / Biodistribution Tumor / Tumor/Blood / Tumor/Lung / Tumor/Muscle: intravenously
Method: Female athymic nude mice (NCr-nu/nu, NCI, Bethasda, Md.) were inoculated with human lung cancer cells (A549 tumor cell line, 3×10^6 cells/mouse, intramuscular) by one author in the mid-dorsal region. After the tumor reached 6 mm, separate biodistribution studies using ^99mTc-EC-DG and 18F-FDG were conducted. Each received ^99mTc-EC-DG or 18F-FDG intravenously (n=3/time point). The injection activity was 1-3 μCi/mouse. The injected mass of ^99mTc-EC-DG was 0.2 mg/rodent.

[2] = test system: RBA CRL-1747 mammary tumor; assay: Biodistribution in mammary (breast) tumor-bearing rats; assay type: in vivo; conditions: iv
Method: (§1) Biodistribution was assessed in mammary tumor-bearing rats (RBA CRL-1747, n=3/time interval, iv). Studies were performed 14 to 17 days after implantation when tumors reached approximately 1 cm in diameter. Following administration of the radiotracer, rats were sacrificed at 0.5-4 hrs. The selected tissues were excised, weighed and counted for radioactivity by using a gamma counter (Packard Instruments, Downers Grove, Ill.). The biodistribution of tracer in each sample was calculated as percentage of the injected dose per gram of tissue wet weight (% ID/g).
as §1, with “breast” for “mammary”

OC[C@H]1OC(O)[C@H]([18F])[C@@H](O)[C@@H]1O (some centres unmarked) [^18FDG, [^18F]fluorodeoxyglucose, reference compound]
Biodistribution Blood ([1]; 30 min): 0.793 ± 0.067 % of injected dose per gram of tissue weight | Biodistribution Brain ([1]; 30 min): 6.557 ± 0.390 % of injected dose per gram of tissue weight | Biodistribution Heart ([1]; 30 min): 11.94 ± 2.571 % of injected dose per gram of tissue weight | Biodistribution Intestine ([1]; 30 min): 2.322 ± 0.542 % of injected dose per gram of tissue weight | Biodistribution Kidney ([1]; 30 min): 1.137 ± 0.117 % of injected dose per gram of tissue weight | Biodistribution Liver ([1]; 30 min): 1.051 ± 0.057 % of injected dose per gram of tissue weight | Biodistribution Lung ([1]; 30 min): 2.490 ± 0.209 % of injected dose per gram of tissue weight | Biodistribution Muscle ([1]; 30 min): 4.876 ± 0.621 % of injected dose per gram of tissue weight | Biodistribution Spleen ([1]; 30 min): 1.824 ± 0.196 % of injected dose per gram of tissue weight | Biodistribution Stomach ([1]; 30 min): 5.046 ± 0.461 % of injected dose per gram of tissue weight | Biodistribution Thyroid ([1]; 30 min): 4.490 ± 0.526 % of injected dose per gram of tissue weight | Biodistribution Tumor ([1]; 30 min): 2.226 ± 0.150 % of injected dose per gram of tissue weight | Tumor/Blood ([1]; 30 min): 2.821 ± 0.144 | Tumor/Lung ([1]; 30 min): 0.912 ± 0.119 | Tumor/Muscle ([1]; 30 min): 0.463 ± 0.026 | Biodistribution Blood ([1]; 2 h): 0.236 ± 0.009 % of injected dose per gram of tissue weight | Biodistribution Brain ([1]; 2 h): 3.113 ± 0.132 % of injected dose per gram of tissue weight | Biodistribution Heart ([1]; 2 h): 20.33 ± 7.675 % of injected dose per gram of tissue weight | Biodistribution Intestine ([1]; 2 h): 2.764 ± 0.496 % of injected dose per gram of tissue weight | Biodistribution Kidney ([1]; 2 h): 0.553 ± 0.104 % of injected dose per gram of tissue weight | Biodistribution Liver ([1]; 2 h): 0.586 ± 0.040 % of injected dose per gram of tissue weight | Biodistribution Lung ([1]; 2 h): 2.222 ± 0.137 % of injected dose per gram of tissue weight | Biodistribution Muscle ([1]; 2 h): 5.409 ± 0.611 % of injected dose per gram of tissue weight | Biodistribution Spleen ([1]; 2 h): 1.903 ± 0.144 % of injected dose per gram of tissue weight | Biodistribution Stomach ([1]; 2 h): 4.374 ± 0.864 % of injected dose per gram of tissue weight | Biodistribution Thyroid ([1]; 2 h): 4.617 ± 0.400 % of injected dose per gram of tissue weight | Biodistribution Tumor ([1]; 2 h): 1.699 ± 0.172 % of injected dose per gram of tissue weight | Tumor/Blood ([1]; 2 h): 7.261 ± 1.007 | Tumor/Lung ([1]; 2 h): 0.775 ± 0.113 | Tumor/Muscle ([1]; 2 h): 0.319 ± 0.031 | Biodistribution Blood ([1]; 4 h): 0.203 ± 0.062 % of injected dose per gram of tissue weight | Biodistribution Brain ([1]; 4 h): 2.065 ± 0.080 % of injected dose per gram of tissue weight | Biodistribution Heart ([1]; 4 h): 19.35 ± 8.286 % of injected dose per gram of tissue weight | Biodistribution Intestine ([1]; 4 h): 1.562 ± 0.342 % of injected dose per gram of tissue weight | Biodistribution Kidney ([1]; 4 h): 0.568 ± 0.027 % of injected dose per gram of tissue weight | Biodistribution Liver ([1]; 4 h): 0.785 ± 0.039 % of injected dose per gram of tissue weight | Biodistribution Lung ([1]; 4 h): 2.280 ± 0.182 % of injected dose per gram of tissue weight | Biodistribution Muscle ([1]; 4 h): 4.743 ± 0.610 % of injected dose per gram of tissue weight | Biodistribution Spleen ([1]; 4 h): 1.591 ± 0.161 % of injected dose per gram of tissue weight | Biodistribution Stomach ([1]; 4 h): 2.278 ± 0.455 % of injected dose per gram of tissue weight | Biodistribution Thyroid ([1]; 4 h): 4.424 ± 0.442 % of injected dose per gram of tissue weight | Biodistribution Tumor ([1]; 4 h): 1.606 ± 0.182 % of injected dose per gram of tissue weight | Tumor/Blood ([1]; 4 h): 8.932 ± 1.973 | Tumor/Lung ([1]; 4 h): 0.717 ± 0.106 | Tumor/Muscle ([1]; 4 h): 0.346 ± 0.048 | tumor/blood ratios, 18F-FDG versus ^99mTc-EC-DG ([1]; mouse, in vivo): higher tumor/blood ratios

O=C(O)[C@@H]1C[S][99Tc]23(=[O])[S]C[C@@H](C(=O)O)[N]2CC[N]13 [^99mTc-EC, ^99mTc-L,L-ethylenedicysteine, reference compound]
Biodistribution Blood ([2]; 1 Hour): 0.273 ± 0.039 % ID/g | Biodistribution Intestine ([2]; 1 Hour): 0.787 ± 0.106 % ID/g | Biodistribution Kidney ([2]; 1 Hour): 8.991 ± 0.268 % ID/g | Biodistribution Liver ([2]; 1 Hour): 0.367 ± 0.006 % ID/g | Biodistribution Lung ([2]; 1 Hour): 0.187 ± 0.029 % ID/g | Biodistribution Muscle ([2]; 1 Hour): 0.043 ± 0.002 % ID/g | Biodistribution Stomach ([2]; 1 Hour): 0.127 ± 0.106 % ID/g | Biodistribution Thyroid ([2]; 1 Hour): 0.229 ± 0.118 % ID/g | Biodistribution Tumor ([2]; 1 Hour): 0.149 ± 0.020 % ID/g | Biodistribution Urine ([2]; 1 Hour): 11.045 ± 6.158 % ID/g | Tumor/Blood ([2]; 1 Hour): 0.544 ± 0.004 | Tumor/Lung ([2]; 1 Hour): 0.797 ± 0.022 | Tumor/Muscle ([2]; 1 Hour): 3.414 ± 0.325 | Biodistribution Blood ([2]; 2 Hour): 0.211 ± 0.001 % ID/g | Biodistribution Intestine ([2]; 2 Hour): 0.401 ± 0.093 % ID/g | Biodistribution Kidney ([2]; 2 Hour): 9.116 ± 0.053 % ID/g | Biodistribution Liver ([2]; 2 Hour): 0.286 ± 0.073 % ID/g | Biodistribution Lung ([2]; 2 Hour): 0.144 ± 0.002 % ID/g | Biodistribution Muscle ([2]; 2 Hour): 0.028 ± 0.009 % ID/g | Biodistribution Stomach ([2]; 2 Hour): 0.037 ± 0.027 % ID/g | Biodistribution Thyroid ([2]; 2 Hour): 0.106 ± 0.003 % ID/g | Biodistribution Tumor ([2]; 2 Hour): 0.115 ± 0.002 % ID/g | Biodistribution Urine ([2]; 2 Hour): 13.192 ± 4.505 % ID/g | Tumor/Blood ([2]; 2 Hour): 0.546 ± 0.010 | Tumor/Lung ([2]; 2 Hour): 0.797 ± 0.002 | Tumor/Muscle ([2]; 2 Hour): 4.425 ± 1.397 | Biodistribution Blood ([2]; 4 Hour): 0.149 ± 0.008 % ID/g | Biodistribution Intestine ([2]; 4 Hour): 0.103 ± 0.009 % ID/g | Biodistribution Kidney ([2]; 4 Hour): 7.834 ± 1.018 % ID/g | Biodistribution Liver ([2]; 4 Hour): 0.234 ± 0.016 % ID/g | Biodistribution Lung ([2]; 4 Hour): 0.120 ± 0.012 % ID/g | Biodistribution Muscle ([2]; 4 Hour): 0.019 ± 0.001 % ID/g | Biodistribution Stomach ([2]; 4 Hour): 0.043 ± 0.014 % ID/g | Biodistribution Thyroid ([2]; 4 Hour): 0.082 ± 0.005 % ID/g | Biodistribution Tumor ([2]; 4 Hour): 0.096 ± 0.005 % ID/g | Biodistribution Urine ([2]; 4 Hour): 8.693 ± 2.981 % ID/g | Tumor/Blood ([2]; 4 Hour): 0.649 ± 0.005 | Tumor/Lung ([2]; 4 Hour): 0.798 ± 0.007 | Tumor/Muscle ([2]; 4 Hour): 5.093 ± 0.223 | Biodistribution Blood ([2]; 30 Min.): 0.435 ± 0.29 % ID/g | Biodistribution Intestine ([2]; 30 Min.): 0.173 ± 0.029 % ID/g | Biodistribution Kidney ([2]; 30 Min.): 7.914 ± 0.896 % ID/g | Biodistribution Liver ([2]; 30 Min.): 0.508 ± 0.062 % ID/g | Biodistribution Lung ([2]; 30 Min.): 0.272 ± 0.019 % ID/g | Biodistribution Muscle ([2]; 30 Min.): 0.060 ± 0.006 % ID/g | Biodistribution Stomach ([2]; 30 Min.): 0.136 ± 0.060 % ID/g | Biodistribution Thyroid ([2]; 30 Min.): 0.219 ± 0.036 % ID/g | Biodistribution Tumor ([2]; 30 Min.): 0.342 ± 0.163 % ID/g | Biodistribution Urine ([2]; 30 Min.): 9.124 ± 0.808 % ID/g | Tumor/Blood ([2]; 30 Min.): 0.776 ± 0.322 | Tumor/Lung ([2]; 30 Min.): 1.256 ± 0.430 | Tumor/Muscle ([2]; 30 Min.): 5.841 ± 3.253
